Experimental data reported in patent publication US20110294722A1, “ANTIMICROBIAL PEPTIDES” (priority 2008, published 2011).
Where two headings read alike, the source gives them in different places. No end group written: not given here.

Assays:
Type in all cases: cell-based
[1] = test system: Pectobacterium carotovorum; conditions: Pectobacterium carotovorum; for MIC (>90% inhibition): 1-2 days at 25° C.; for LC (lethal concentration, 100% inhibition): at least 4 days of incubation
Procedure: (§1) In-vitro inhibition assays were performed in sterile flat-bottom 96-well plates (Greiner bio-one, Frickenhausen). Antimicrobial peptides were dissolved in 0.01% acetic acid containing 0.2% BSA (500 μg/ml), filter sterilized and stored at −20° C. For inhibition assays dilutions of peptides ranging from 5 to 200 μg/ml were prepared and 10 μl (antibacterial assay) or 20 (antifungal assay) of each concentration was loaded per well.
(§2) Bacteria colonies from overnight agar plate cultures were resuspended into 5 ml LB-medium or HPG-medium (OD600 nm=0.08-0.1) and diluted into LB-medium/HPG-medium (1:100). 90 μl of this suspension containing about 10^5-10^6 CFU/ml of tested bacteria were added to each well resulting in final peptide concentrations of 0, 0.5, 1, 2, 5, 10, and 20 μg/ml. […] The lowest concentration, in which there is no observable growth (>90% inhibition) is referred to as minimal inhibitory concentration (MIC). […] For each peptide concentration two identical inhibition assays were performed.

Pseudomonas corrugata = conditions: Pseudomonas corrugata; for MIC (>90% inhibition): 1-2 days at 25° C.; for LC (lethal concentration, 100% inhibition): at least 4 days of incubation
Procedure: as §1, §2

[2] = test system: Pseudomonas syringae pv. syringae; conditions: Pseudomonas syringae pv. syringae; for MIC (>90% inhibition): 1-2 days at 25° C.; for LC (lethal concentration, 100% inhibition): at least 4 days of incubation
Procedure: as §1, §2

[3] = test system: Pseudomonas syringae pv. tomato; conditions: for LC (lethal concentration, 100% inhibition): at least 4 days of incubation
Procedure: as §1, §2

[4] = test system: Clavibacter michiganensis; assay: In-vitro inhibition assay (MIC and LC), Example 3; conditions: for MIC (>90% inhibition): 1-2 days at 25° C.; for LC (lethal concentration, 100% inhibition): at least 4 days of incubation
Procedure: as §1, §2

Xanthomonas vesicatoria = assay: In-vitro inhibition assay (MIC and LC), Example 3; conditions: for MIC (>90% inhibition): 1-2 days at 25° C.; for LC (lethal concentration, 100% inhibition): at least 4 days of incubation
Procedure: as §1, §2

[5] = Pseudomonas syringae pv. tomato, 1-2 days at 25° C.
[6] = Pseudomonas syringae pv. tomato

Substance | MIC (>90% inhibition) [1] | LC (lethal concentration, 100% inhibition) [1] | MIC (>90% inhibition) (Pseudomonas corrugata) | LC (lethal concentration, 100% inhibition) (Pseudomonas corrugata) | MIC (>90% inhibition) [2] [µg/mL] | LC (lethal concentration, 100% inhibition) [2] [µg/mL] | MIC (>90% inhibition) [3, 5] | LC (lethal concentration, 100% inhibition) [3, 6] | MIC (>90% inhibition) [4] | LC (lethal concentration, 100% inhibition) [4] | MIC (>90% inhibition) (Xanthomonas vesicatoria) | LC (lethal concentration, 100% inhibition) (Xanthomonas vesicatoria) | MIC (>90% inhibition) [3]
KKKKIIKRLI-NH2 [SP1-17] | >10/>10 μg/ml | >10/>10 μg/ml | 5.0 µg/mL | > 10 µg/mL | < 0.1 | > 10 | 1.0/1.0 μg/ml | 1.0/1.0 μg/ml | >10/>10 μg/ml | >10/>10 μg/ml | >10/>10 μg/ml | >10/>10 μg/ml | –
KKKKKKIIKKII-NH2 [SP1-22] | >10/>10 μg/ml | >10/>10 μg/ml | >10/>10 μg/ml | >10/>10 μg/ml | 2.5 | 10 | 1.0 µg/mL | 5.0 µg/mL | >10/>10 μg/ml | >10/>10 μg/ml | >10/>10 μg/ml | >10/>10 μg/ml | –
KRKKLLKRLI-NH2 [SP1-16] | >10/>10 μg/ml | >10/>10 μg/ml | 0.5 µg/mL | 1.0 µg/mL | 0.1 | 2.5 | 1.0/1.0 μg/ml | 1.0/1.0 μg/ml | >10/>10 μg/ml | >10/>10 μg/ml | 10/>10 μg/ml | 10/>10 μg/ml | –
KRKKLLKRLL-NH2 [SP1-15] | >10/>10 μg/ml | >10/>10 μg/ml | <0.1/<0.1 μg/ml | <0.1/<0.1 μg/ml | 0.1 | 1.0 | 1.0/1.0 μg/ml | 1.0/1.0 μg/ml | 5.0/5.0 μg/ml | 5.0/5.0 μg/ml | 5.0/5.0 μg/ml | 5.0/5.0 μg/ml | –
RKKKAKIIKKII-NH2 [SP1-10] | >10/>10 μg/ml | >10/>10 μg/ml | 10/10 μg/ml | 10/10 μg/ml | 1.0 | 5.0 | >10/>10 μg/ml | >10/>10 μg/ml | >10/>10 μg/ml | >10/>10 μg/ml | >10/>10 μg/ml | >10/>10 μg/ml | –
RKKKFKFFKRFF-NH2 [SP1-13] | >10/>10 μg/ml | >10/>10 μg/ml | < 0.1 µg/mL | 0.25 µg/mL | 0.1 | 0.5 | – | 5.0 µg/mL | 0.25 µg/mL | 1.0 µg/mL | 0.5 µg/mL | 2.5 µg/mL | 1.0 µg/mL
RKKKFKFFKRLF-NH2 [SP1-12] | >10/>10 μg/ml | >10/>10 μg/ml | 0.25 µg/mL | 0.5 µg/mL | 0.1 | 0.5 | >10/>10 μg/ml | >10/>10 μg/ml | 0.5/0.5 μg/ml | 0.5/0.5 μg/ml | 0.5 µg/mL | 2.5 µg/mL | –
RKKKFKIFKRLF-NH2 [SP1-14] | >10/>10 μg/ml | >10/>10 μg/ml | 0.5 µg/mL | 1.0 µg/mL | < 0.1 | 0.5 | – | – | 1.0 µg/mL | 2.5 µg/mL | 1.0 µg/mL | 2.5 µg/mL | 1.0 to 5.0 µg/mL
RKKKIKIIKKII-NH2 [SP1-9] | >10/>10 μg/ml | >10/>10 μg/ml | 5.0/5.0 μg/ml | 5.0/5.0 μg/ml | 0.5 | 1.0 | 5.0 µg/mL | 10 µg/mL | 2.5 µg/mL | 10 µg/mL | 2.5/2.5 μg/ml | 2.5/2.5 μg/ml | –
RKKKIKIIKRLI-NH2 [SP1-8] | >10/>10 μg/ml | >10/>10 μg/ml | 2.5/2.5 μg/ml | 2.5/2.5 μg/ml | 0.25 | 0.5 | – | 10/10 μg/ml | 5.0 µg/mL | > 10 µg/mL | 2.5 µg/mL | 5.0 µg/mL | 10/10 μg/ml
RKKKKKIIKKLI-NH2 [SP1-21] | >10/>10 μg/ml | >10/>10 μg/ml | 2.5 µg/mL | 5.0 µg/mL | 0.5 | 2.5 | 2.5 µg/mL | 5.0 µg/mL | >10/>10 μg/ml | >10/>10 μg/ml | >10/>10 μg/ml | >10/>10 μg/ml | –
RKKKLKFFKRLF-NH2 [Sp1-11] | >10/>10 μg/ml | >10/>10 μg/ml | 0.25 µg/mL | 1.0 µg/mL | 1.0 | 2.5 | >10/>10 μg/ml | >10/>10 μg/ml | 2.5 µg/mL | 5.0 µg/mL | 2.5 µg/mL | 10 µg/mL | –
RKKKLKIIKRLI-NH2 [SP1-7] | >10/>10 μg/ml | >10/>10 μg/ml | 0.5 µg/mL | 2.5 µg/mL | 0.1 | 0.25 | – | 10/10 μg/ml | 2.5/2.5 μg/ml | 2.5/2.5 μg/ml | 1.0/1.0 μg/ml | 1.0/1.0 μg/ml | 10/10 μg/ml
RKKKLKVVKRLV-NH2 [SP1-6] | >10/>10 μg/ml | >10/>10 μg/ml | >10/>10 μg/ml | >10/>10 μg/ml | 5.0 | > 10 | 1.0/1.0 μg/ml | 1.0/1.0 μg/ml | 10/>10 μg/ml | 10/>10 μg/ml | >10/>10 μg/ml | >10/>10 μg/ml | –
RKKKVKLLKRLV-NH2 [SP1-3] | >10/>10 μg/ml | >10/>10 μg/ml | 2.5/2.5 μg/ml | 2.5/2.5 μg/ml | 0.25 | 1.0 | 5.0 µg/mL | 10 µg/mL | >10/>10 μg/ml | >10/>10 μg/ml | >10/>10 μg/ml | >10/>10 μg/ml | –
